Values quoted from earlier work, collected in article PMC8778659 (Bioconjugate Chemistry, 2021).

System: LNCaP xenografts
Settings: 1 h p.i. ref 29

specific tumor uptake: 11.7 ± 4.2 %ID/g
SMILES: O=C(O)CC[C@H](NC(=O)N[C@@H](CCCCNC(=O)c1ccc(-c2cn(CCOCCOCC[18F])nn2)cc1)C(=O)O)C(=O)O [[18F]PSMA-MIC01]
